# According to the supplement of paper PMC13380429:
# Legend:
# Conditions in all cases: 72 h
# [1] = test system: HepG2; assay: drug sensitivity score (DSS) for viability; higher = more toxic; extreme values may be limits of the assay
# [2] = test system: Calu-3; assay: as above
# [3] = test system: Vero E6; assay: as above
# [4] = test system: U2OS; assay: as above
# [5] = test system: Caco-2; assay: as above
# [6] = test system: HepG2; assay: cell viability relative to DMSO; higher = less toxic
# [7] = test system: Calu-3; assay: as above
# [8] = test system: Vero E6; assay: as above
# [9] = test system: U2OS; assay: as above
# [10] = test system: Caco-2; assay: as above
# [11] = test system: HepG2; assay: relative viability EC50 (midpoint between 100% and the lowest measured viability); higher = less toxic
# [12] = test system: Calu-3; assay: as above
# [13] = test system: Vero E6; assay: as above
# [14] = test system: U2OS; assay: as above
# [15] = test system: Caco-2; assay: as above
Structure (SMILES),drug sensitivity score [1],drug sensitivity score [2],drug sensitivity score [3],drug sensitivity score [4],drug sensitivity score [5],cell viability ([6]; 1 nM) [%],cell viability ([6]; 10 nM) [%],cell viability ([6]; 100 nM) [%],cell viability ([6]; 1000 nM) [%],cell viability ([6]; 10000 nM) [%],cell viability ([7]; 1 nM) [%],cell viability ([7]; 10 nM) [%],cell viability ([7]; 100 nM) [%],cell viability ([7]; 1000 nM) [%],cell viability ([7]; 10000 nM) [%],cell viability ([8]; 1 nM) [%],cell viability ([8]; 10 nM) [%],cell viability ([8]; 100 nM) [%],cell viability ([8]; 1000 nM) [%],cell viability ([8]; 10000 nM) [%],cell viability ([9]; 1 nM) [%],cell viability ([9]; 10 nM) [%],cell viability ([9]; 100 nM) [%],cell viability ([9]; 1000 nM) [%],cell viability ([9]; 10000 nM) [%],cell viability ([10]; 1 nM) [%],cell viability ([10]; 10 nM) [%],cell viability ([10]; 100 nM) [%],cell viability ([10]; 1000 nM) [%],cell viability ([10]; 10000 nM) [%],relative viability EC50 [11] [nM],relative viability EC50 [12] [nM],relative viability EC50 [13] [nM],relative viability EC50 [14] [nM],relative viability EC50 [15] [nM]
C=CC(=O)Nc1cccc(Oc2nc(Nc3ccc(N4CCN(C)CC4)cc3)ncc2Cl)c1 [WZ-3146],6.7,13.9,10.3,9.7,8.3,108,100,109,75,38.7,95.9,89.9,86.4,36.9,2.3,104,99.3,106,59.9,7.8,97.6,100,95.5,72.1,0.2,90.7,100,99.3,78.3,11.6,1160,539,1110,1460,1560
CC(C)c1cc(CNc2nc(Nc3cc(C4CC4)[nH]n3)cc(N3CCN(C)CC3)n2)on1 [XL228],16.2,8.8,7.8,15.1,6.7,95.3,98.3,62.4,40.6,7.4,95.7,99.3,87.3,61.5,33.9,94,97.8,101,75.3,23,104,103,84.8,30,0,111,94.4,93,72.5,33.1,266,593,1350,470,1220
CC(=O)c1ccc(S(=O)(=O)NC(=O)NC2CCCCC2)cc1 [acetohexamide],0,0,0,0,3.7,99.5,103,106,113,106,91.8,112,90.2,107,104,92.7,98.2,97.1,98.9,110,95.1,98,96.6,96.3,96.9,97.1,85.8,90.7,75.4,83.1,> 10000,> 10000,> 10000,> 10000,> 10000
O=C(O)C(=O)Nc1cccc(-c2nnn[nH]2)c1 [acitazanolast],0,0,0,0,0,94.8,99,101,96.3,110,100,107,91.3,105,99,98.7,99.5,99.4,100,97.4,99.8,98.4,99.3,101,96,100,86.7,88.4,95.9,97.1,> 10000,> 10000,> 10000,> 10000,> 10000
O=C(NCCN1CCN(c2ncccn2)CC1)C12CC3CC(CC(C3)C1)C2 [adatanserin],0.9,0,0,0,0,102,98,88.5,90.7,90.9,101,96.5,107,86.8,101,99.5,97.9,101,99.4,104,94.9,94.2,97.8,96.9,97.4,92,114,94.7,102,88.5,> 10000,> 10000,> 10000,> 10000,> 10000
